Where a name gives a salt, the structure may show the parent alone.
What was measured:
[1] = Loading of vancomycin and ATP into linker-MSN with CdS capping, HPLC of filtrate; type: physicochemical; details: for loading efficiency: CdS-capped linker-MSN; for amount of mesopore-encapsulated molecule: per 100.0 mg of linker-MSN material, from concentration decrease in filtrate
Experimental: Purified linker-MSN material from sub-part (b) below (100.00 mg) was incubated in a PBS buffer solution (0.60 mL, pH 7.4) of ATP or vancomycin (3.00 μmol in both cases) for 24 hours. Mercaptoacetic acid-functionalized CdS nanoparticles from sub-part (c) below (0.15 mmol) were dissolved in 2.00 mL of PBS buffer with vancomycin or ATP (0.01 mmol in both cases); 1-[3-(dimethylamino)propyl]-3-ethylcarbodiimide hydrochloride (EDC) (57.50 mg, 0.30 mmol) was added to the CdS/drug solution. The reaction mixture was allowed to stir for 24 hours, followed by centrifuging the suspension at 12,000 rpm for 3 minutes. The resulting precipitates (ATP- or vancomycin-loaded, CdS-capped MSNs) were isolated and dried under vacuum.
The water-soluble CdS nanocrystals (average particle diameter of 2.0 nm) with mercaptoacetic acid groups were covalently captured and formed amide bonds by reacting with the mesopore surface-bound 2-(propyldisulfanyl)ethylamine linkers of the MSN/drug composite material in aqueous solutions. The resulting reaction suspensions were centrifuged, and the CdS-capped MSN/drug composite materials along with the unreacted CdS nanoparticles were filtered. The concentrations of the free vancomycin and ATP molecules in the filtrate were then determined by HPLC. The calculated concentration decreases of solution vancomycin and ATP were attributed to the amounts of mesopore-encapsulated vancomycin (2.5 μmol) and ATP (4.7 μmol) per 100.0 mg of linker-MSN material. These numbers correspond to ca. 83.9 and 30.3 mol % loading efficiency, respectively.

[2] = DTT-induced drug/neurotransmitter release study (HPLC); type: physicochemical; details: for release within 24 hours as share of total release seen in 3 days: from CdS-capped MSN after 18.5 mM DTT; for amount released after 3 days of DTT-induced uncapping / encapsulated molecule released after 3 days of DTT-induced uncapping: from CdS-capped MSN, PBS pH 7.4
Experimental: CdS-capped MSN with vancomycin or ATP (10.00 mg) material was dispersed in 1.50 mL of PBS buffer (pH 7.4), followed by repeating wash/sonication/centrifugation cycles for five times to remove physisorbed, uncapped vancomycin or ATP molecules on the exterior surface of the material. The purified MSN/drug composite was redispersed in 3.50 mL of PBS buffer (pH 7.4). Aliquots were taken every 4 hours over a time period of 12 hours from the MSN/water suspension and injected to an analytical HPLC system (Hitachi LC/3DQMS with a reverse phase C18 column (Vydac), 0.4 cm×25 cm) to monitor the leaching of the mesoporous channel encapsulated vancomycin or ATP molecules. After 12 hours, dithiothreitol (DTT, 18.50 mM) was added to the suspension to cleave the disulfide linkage between the CdS nanoparticle and the MSN. The kinetic profiles of the DTT-induced release of vancomycin and ATP were monitored by following two literature-reported HPLC separation conditions. The peaks/areas at 280 and 258 nm were monitored/integrated for the quantitative analysis of amounts of released vancomycin and ATP, respectively. See Farin et al., J. Pharm. Biomed. Anal. 1998, 18:367; and Veciana-Nogues et al., Food Chem. 1997, 59:467.

type-1 astrocytes = assay: Intracellular calcium imaging (Fura-2) of astrocyte cultures; details: no MSNs
Experimental: After incubation, tissue was rinsed with EBSS solution and incubated for 5 minutes in trypsin-inhibitor solution (1 mg/mL; Gibco-Invitrogen Co.). After being rinsed, once with EBSS solution and once with culture medium (consisting of α-minimum essential medium (α-MEM; Gibco-Invitrogen Co.) supplemented with 10% heat-inactivated fetal bovine serum (FBS; Gibco-Invitrogen Co.) and 1.00 mL of penicillin-streptomycin solution (Sigma-Aldrich Co.) per 100 mL), the tissue was mechanically dispersed in culture medium by triturating through a fire-polished glass pipet. The cell suspension was transferred to sterile 15-mL centrifuge tubes and spun at 1000 g for 10 minutes. Cell pellets were resuspended in culture medium (α-MEM supplemented with 10% heat-inactivated FBS and 1.00 mL of penicillin-streptomycin solution per 100.00 mL) and plated in culture flasks. […] Culture medium was changed every 2 to 3 days. When mixed cultures reached confluence (9-12 days), the flasks were shaken (260 rpm) for 90 minutes to remove microglia and dividing type I astroglia. After shaking the cells, medium was replaced, and the flasks were incubated for 1 hour to equilibrate with CO2 in the fresh medium. […]
The effect of experimental manipulation on the intracellular calcium concentration ([Ca^2+]i) of cultured cells was evaluated by ratiometric imaging techniques. […]

[3] = system: tobacco mesophyll protoplasts; assay: Endocytosis experiments with tobacco mesophyll protoplasts (Example 11); type: cell-based, Nicotiana tabacum; details: 1 mM LYCH, overnight in W5
Experimental: Tobacco protoplasts were mixed with MSN in W5 media (Spangenberg et al., supra) using 10^6 cells for 10 μg of MSN. The mix was incubated overnight in 3 mL of W5 in BD Falcon 6-well flat-bottom plates. To remove non-engulfed MSN (except for FIG. 20A), the mixture were overlaid on K4 medium (Spangenberg et al., supra) and centrifuge at 100×g for 10 minutes at room temperature. The protoplasts at the interphase were collected and evaluated. Isolated live cells experiments images were taken using a 63× oil objective with a Leica TCS/NT laser scanning confocal microscope equipped with Argon 488 nm and Krypton 568 nm lasers plus a double dichroic DD488/568 filter. To detect fluorescence in the green channel, a combination of RSP580 and BP525/25 filters was used under wavelength between 500 and 550 nm. For the red channel, wavelength above 590 nm was selected using a LP590 filter. During scanning, pinhole was maintained at 1 for all images. Images were acquired using TCS software and analyzed using ImageJ (Abramoff et al., Biophotonics Int'l 2004, 11:36). Whole tissue images were taken under either bright field or GFP band pass exciter 460-490 nm with emission filter 510-550 nm using an Olympus SHZ10 stereoscope coupled to a SPOT RT color CCD camera (Diagnostic Instrument Inc.). Images were acquired with SPOT software.

protoplasts = details: 1-2 mg of DNA per 10^6 cells; cited from earlier work

Molecule | loading efficiency [1] | amount of mesopore-encapsulated molecule [1] | release within 24 hours as share of total release seen in 3 days [2] | amount released after 3 days of DTT-induced uncapping [2] | encapsulated molecule released after 3 days of DTT-induced uncapping [2] | also measured
Nc1ncnc2c1ncn2[C@@H]1O[C@H](COP(=O)([O-])OP(=O)([O-])OP(=O)(O)O)[C@@H](O)[C@H]1O.[Na+].[Na+] [ATP, adenosine triphosphate disodium salt] | ~30.3 mol % | 4.7 µmol | 85% | 1.3 µmol | 28.2% | change of intracellular [Ca2+]i (type-1 astrocytes; 100.0 μM, ME-treated astrocytes): obvious increases in [Ca^2+]i
OCCS [ME] | – | – | – | – | – | change of intracellular [Ca2+]i (type-1 astrocytes; perfusion 1.0 mM for 5 minutes): no increase in [Ca^2+]i
CN[C@H](CC(C)C)C(=O)N[C@H]1C(=O)N[C@@H](CC(N)=O)C(=O)N[C@H]2C(=O)N[C@H]3C(=O)N[C@H](C(=O)N[C@H](C(=O)O)c4cc(O)cc(O)c4-c4cc3ccc4O)[C@H](O)c3ccc(c(Cl)c3)Oc3cc2cc(c3O[C@@H]2O[C@H](CO)[C@@H](O)[C@H](O)[C@H]2O[C@H]2C[C@](C)(N)[C@H](O)[C@H](C)O2)Oc2ccc(cc2Cl)[C@H]1O [vancomycin, Vancomycin hydrochloride] | ca. 83.9 mol % | 2.5 µmol | 85% | 1.6 µmol | 53.8% | –
Lucifer Yellow CH, lithium salts | – | – | – | – | – | protoplasts that underwent endocytosis [3]: 26±7%
polyethylene glycol [polyethylene glycol (PEG)] | – | – | – | – | – | transient transformation efficiency (protoplasts): 40-90%
